{
  "source": "patent US8592466B2",
  "about": "“Methods for treating conditions caused by higher-than-normal dopaminergic activity in basal ganglia” (Neuropill, Inc., priority 2008, dated 2013)",
  "key": {"[1]": {"assay": "Cocaine and BE pharmacokinetics under RPR 102681 treatment", "details": "post-treatment RPR 102681 doses vs baseline"}, "DA release in striatum": {"tested_on": "DA release in striatum", "assay": "[11C]-raclopride PET binding potential", "assay_type": "in vivo, humans", "protocol": "The Positron Emission Tomography (PET) scans were performed at the PET Center of Johns Hopkins University at Johns Hopkins Hospital, Baltimore, Md. During the PET scans three plasma samples of RPR 102681 were obtained from each subject under different dosing to measure RPR 102681 plasma concentration.\nEach subject was also studied using Magnetic Resonance Imaging (MRI). Each subject received an individual thermoplastic mask molded to their face to allow for repositioning and stabilizing of the head during the MRI procedure and PET scan later. Marks, which localized the anatomical structures of interest, were placed on the mask following the MRI scan. In particular, each subject received an MRI with a sagittal scout view to localize the anterior commissure-posterior commissure (AC-PC) line to allow standardized positioning across the subjects based on the anatomical landmarks. […]\n[^11C]-raclopride PET scans were preformed on days 6, 13, 20 and 27. […] To measure the specific binding of tracer, binding potential (BP) images were generated by a simplified reference model with a linear regression algorithm (Using a reference tissue model with spatial constraint to quantify [^11C] Pittsburgh compound B PET for early diagnosis of Alzheimer's disease, Yun Zhou, Susan M. Resnick, Weiguo Ye, Hong Fan, Daniel P. Holt, William E. Klunk, Chester A. Mathis, Robert Dannals, and Dean F. Wonga, NeuroImage 36 (2007) 298-312). […]\nSubjects received PET scans with [^11C]-raclopride at baseline after uneventful completion of screening cocaine infusions and assignment to RPR 102681 or placebo treatment and on the fifth day of each RPR 102681 dose level (days 13, 20 and 27). After six subjects had completed all four PET scans these subjects' PET scan data was analyzed without breaking the blind to determine whether or not the PET scans should have been administered to any additional subjects. […]"}, "[2]": {"assay": "Phase I cocaine interaction study: heart rate and blood pressure"}, "[3]": {"details": "12 healthy adult human subjects; most events, except for one subject; cited from earlier work"}, "[4]": {"assay": "Phase I cocaine interaction study: 12-lead ECG", "assay_type": "in vivo, humans", "protocol": "Changes in ECG readings during saline infusion as compared to those taken during cocaine infusions were also reported.\nA 12 Lead ECG was scheduled at Pre-Intake Screening, Intake Screening, Discharge and follow-up all of which are non-infusion days. […] All subjects completed the non-infusion ECG's at baseline and discharge.\nTo evaluate subjects' responses to cocaine infusion, measurements after cocaine 40 mg infusion were compared to those prior to any infusion (reading at −10 min). Readings at 4 min and 40 min were used when the first infusion was cocaine while readings at 64 min and 100 min were used when the second infusion was cocaine. […] The RPR 102681 group also had decreased RR and QT duration from baseline at 40 min post cocaine infusion on day 15. In the placebo group, some scattered significant decreases from baseline were observed including PR duration at 4 min post cocaine on day 8 and RR duration at 4 min post cocaine on day 8 and 15. […] However, the statistical significance might not hold if multiplicity adjustment was performed in these multiple comparisons."}, "[5]": {"details": "cited from earlier work"}, "[6]": {"tested_on": "dopamine release in the ventral striatum", "details": "animal data, cited from earlier work"}},
  "data": [
    {"smiles": "CC(C(=O)O)c1cccc(NC(=O)NCC(=O)N2C(C(=O)OC(C)(C)C)CSC2c2ccccc2F)c1", "note": "[RPR 102681, (2S)-2-{3-[3-({[(2R,4R)-4-tert-Butoxycarbonyl-2-(2-fluorophenyl)]-3-thiazolidinyl}carbonylmethyl)ureido]phenyl}propionic acid]", "values": [
      {"measurement": "cocaine and BE pharmacokinetic parameters, difference from baseline", "setting": "[1]", "result": "No statistically significant differences"},
      {"measurement": "change in [11C]-raclopride binding potential (BP)", "setting": "DA release in striatum; Dosing Schedule A, caudate nucleus, putamen or ventral striatum", "result": "no statistically significant change"},
      {"measurement": "change in [11C]-raclopride binding potential (BP)", "setting": "DA release in striatum; Dosing Schedule B, dose 60-90 minutes prior to PET scan, caudate nucleus and ventral striatum, P<0.001", "result": "significantly increased BP"},
      {"measurement": "dopamine release inferred from raclopride binding potential", "setting": "DA release in striatum; humans, PET brain imaging", "result": "inhibited dopamine release"},
      {"measurement": "elevation of DBP after cocaine", "setting": "[2]; RPR 800 mg, cocaine 20 mg i.v., P-value=0.093", "result": "reduces"},
      {"measurement": "elevation of HR after cocaine", "setting": "[2]; RPR 800 mg, cocaine 40 mg i.v., P-value=0.009", "result": "reduces the elevation of HR"},
      {"measurement": "elevation of SBP after cocaine", "setting": "[2]; RPR 102681 200 mg, cocaine 20 mg i.v., P-value=0.031", "result": "increased the elevation of SBP"},
      {"measurement": "SBP increase in response to cocaine vs placebo group", "setting": "[2]; cocaine 20 mg, GEE model adjusted for baseline, P-value=0.0412", "result": "significantly greater SBP increase"},
      {"measurement": "maximum HR/SBP/DBP changes across RPR 102681 dose conditions", "setting": "[2]; pair-wise comparisons within RPR 102681 group, in general", "result": "does not significantly change HR/SBP/DBP"},
      {"measurement": "HR/SBP/DBP, RPR 102681 vs placebo groups", "setting": "[2]; prior to infusions, post saline or post cocaine infusions, any day", "result": "no statistical difference"},
      {"measurement": "severity of adverse events and treatment-associated adverse events", "setting": "[3]", "result": "mild or moderate"},
      {"measurement": "PR/RR/QT duration following cocaine infusion vs pre infusion", "setting": "[4]; cocaine 40 mg infusion", "result": "seemed to decrease"},
      {"measurement": "clinical significance of PR/RR/QT changes", "setting": "[4]; cocaine 40 mg infusion", "result": "not clinically significant"},
      {"measurement": "pre infusion RR and QT duration vs intake screening", "setting": "[4]; days 8, 15, 22, 29", "result": "No significant difference"},
      {"measurement": "pre infusion PR duration vs intake screening", "setting": "[4]; days 8, 15, 22, 29, Signed Rank Test", "result": "significantly longer"},
      {"measurement": "ECG mean values for VR, PR, QT, RR and QRS", "setting": "[4]; non-infusion days", "result": "within normal range"},
      {"measurement": "diarrhea", "setting": "[5]; first clinical study", "result": 2, "unit": "occurrences"},
      {"measurement": "euphoria", "setting": "[5]; first clinical study", "result": 2, "unit": "occurrences"},
      {"measurement": "headaches", "setting": "[5]; first clinical study", "result": 3, "unit": "occurrences"},
      {"measurement": "postural hypotension", "setting": "[5]; first clinical study", "result": 6, "unit": "occurrences"},
      {"measurement": "somnolence", "setting": "[5]; first clinical study", "result": 3, "unit": "occurrences"},
      {"measurement": "flatulence", "setting": "[5]; second clinical study", "result": 4, "unit": "occurrences"},
      {"measurement": "headache", "setting": "[5]; second clinical study", "result": 1, "unit": "occurrences"},
      {"measurement": "pharyngitis", "setting": "[5]; second clinical study", "result": 4, "unit": "occurrences"},
      {"measurement": "serious adverse events", "setting": "[5]; two clinical studies in France and two NIH studies", "result": "no serious adverse events"},
      {"measurement": "dopamine release in the ventral striatum (microdialysis)", "setting": "[6]; intraperitoneal administration", "result": "stimulates dopamine release"},
      {"measurement": "release of dopamine compared to baseline values", "setting": "[6]; intraperitoneal, highest dose tested 20 mg/Kg", "result": "almost tripled"}
    ]}
  ]
}
